Among the data in patent US20030134884A1, “Neovascularization inhibitors” (priority 2000, published 2003) are IC50 and melting point values, retold here.

The structures appear in SMILES notation.

One may read the melting point as the temperature of the solid-liquid transition.

The test system of series [1] is Human Microvascular Endothelial Cells (HMVE). Put plainly: human microvascular endothelial cell growth inhibitory assay (Alamar Blue). The series is classed as cell-based. Conditions: 72 h, cultured 3 days, 2% bovine fetal serum, Alamar Blue fluorescence, control well = 100%, read-out: IC50 (concentration showing 50% growth inhibitory activity). The procedure:
The angiogenesis inhibitory action of compound (II) and an insulin sensitizer other than compound (II) was determined by a human microvascular endothelial cell growth inhibitory assay method. Human microvascular endothelial cells [Human Microvascular Endothelial Cells (HMVE), (produced by KURABO INDUSTRIES LTD., Japan)] (2×10^4/ml medium, 0.1 ml/well) in MCDB107 medium (GIBCO, US) containing 2% bovine fetal serum was dispensed to a 96 well collagen-coated microplate (produced by SUMITOMO BAKELITE CO., LTD., Japan) and a dimethylformamide (DMF) solution containing various test compounds was diluted and added to the test group. The cells were cultured at 37° C. in 5% CO2 for 3 days. Alamar Blue was added to each well and reacted at 37° C. for 4 hr. Using a fluorometer (Fluoroskan Ascent, produced by LabSystems, US), the fluorescence intensity was measured and the cell count of the well was compared with that of control. Taking the cell count of the control well as 100%, the concentration (IC50) showing 50% growth inhibitory activity was calcualted.
Background: Resazurin is reduced to fluorescent resorufin, in cell work by metabolically active cells.

With `Cc1oc(-c2ccccc2)nc1COc1ccc(CO/N=C(\CCC(=O)O)c2ccccc2)cc1` [compound (7), E-4-[4-(5-methyl-2-phenyl-4-oxazolylmethoxy)benzyloxyimino]-4-phenylbutyric acid], the IC50 in series [1] came out at 23 µM.
Still for that read-out and setting: under `Cc1c(C)c2c(c(C)c1O)CCC(C)(COc1ccc(CC3SC(=O)NC3=O)cc1)O2` (stereo not shown) [compound (B), 5[[4-[(3,4-dihydro-6-hydroxy-2,5,7,8-tetramethyl-2H-1-benzopyran-2-yl)methoxy]phenyl]methyl]-2,4-thiazolidinedione] stands 107 µM.
Molecule `Cc1sc(-c2ccccc2)nc1COc1ccc(CCC[C@H]2OC(=O)NC2=O)cc1` [compound (D), (R)-(+)-5-[3-[4-[(5-methyl-2-phenyl-4-thiazolyl)methoxy]phenyl]propyl]-2,4-oxazolidinedione] came in with a melting point of 130 to 131 °C. In series [1], the IC50 amounted to 496 µM.
